Biological target: ATP-dependent translocase ABCB1 (Homo sapiens, UniProt P08183)
Assay: TP_TRANSPORTER: binding in plasma membranes from CEM/VLB1.0 cells

Sequence of ATP-dependent translocase ABCB1 (P08183 whole entry): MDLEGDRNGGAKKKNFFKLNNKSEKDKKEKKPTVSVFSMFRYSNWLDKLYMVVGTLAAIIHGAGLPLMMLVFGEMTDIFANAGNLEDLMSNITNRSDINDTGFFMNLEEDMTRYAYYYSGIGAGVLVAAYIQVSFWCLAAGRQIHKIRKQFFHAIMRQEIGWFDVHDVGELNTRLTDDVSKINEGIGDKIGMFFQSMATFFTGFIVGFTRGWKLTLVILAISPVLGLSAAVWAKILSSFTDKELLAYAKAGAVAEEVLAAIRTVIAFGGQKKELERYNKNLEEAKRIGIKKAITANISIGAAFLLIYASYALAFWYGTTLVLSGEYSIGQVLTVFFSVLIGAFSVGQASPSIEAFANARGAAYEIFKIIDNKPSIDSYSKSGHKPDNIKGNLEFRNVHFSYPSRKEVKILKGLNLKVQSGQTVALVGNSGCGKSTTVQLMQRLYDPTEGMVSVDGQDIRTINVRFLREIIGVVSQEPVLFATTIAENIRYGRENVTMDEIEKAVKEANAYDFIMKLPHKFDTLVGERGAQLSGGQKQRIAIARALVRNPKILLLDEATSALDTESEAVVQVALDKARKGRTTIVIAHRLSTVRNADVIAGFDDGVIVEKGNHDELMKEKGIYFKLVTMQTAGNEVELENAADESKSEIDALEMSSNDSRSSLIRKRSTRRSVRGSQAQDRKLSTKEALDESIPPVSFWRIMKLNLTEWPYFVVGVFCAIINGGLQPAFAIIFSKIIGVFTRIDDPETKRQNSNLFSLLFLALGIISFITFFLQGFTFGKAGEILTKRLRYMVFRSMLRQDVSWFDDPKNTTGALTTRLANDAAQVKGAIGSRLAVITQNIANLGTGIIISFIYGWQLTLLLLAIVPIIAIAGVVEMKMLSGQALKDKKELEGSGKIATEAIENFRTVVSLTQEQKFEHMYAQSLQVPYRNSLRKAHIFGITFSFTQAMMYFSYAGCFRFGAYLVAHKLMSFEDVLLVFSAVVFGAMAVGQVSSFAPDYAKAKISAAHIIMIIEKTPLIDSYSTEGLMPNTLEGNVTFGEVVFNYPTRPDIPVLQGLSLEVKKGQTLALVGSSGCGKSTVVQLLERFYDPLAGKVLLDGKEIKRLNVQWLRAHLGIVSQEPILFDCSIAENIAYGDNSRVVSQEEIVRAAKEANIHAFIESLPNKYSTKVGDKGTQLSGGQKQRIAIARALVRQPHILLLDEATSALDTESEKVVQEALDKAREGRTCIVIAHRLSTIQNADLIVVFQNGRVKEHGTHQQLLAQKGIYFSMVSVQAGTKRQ

Kd: 11 nM
Compound: CC[C@H](C)[C@H]1O[C@]2(CC[C@@H]1C)C[C@@H]1C[C@@H](C/C=C(\C)[C@@H](O[C@H]3C[C@H](OC)[C@@H](O[C@H]4C[C@H](OC)[C@@H](O)[C@H](C)O4)[C@H](C)O3)[C@@H](C)/C=C/C=C3\CO[C@@H]4[C@H](O)C(C)=C[C@@H](C(=O)O1)[C@]34O)O2 [ABAMECTIN]

Reference: BindingDB's records for doi:10.1016/s0006-2952(96)00656-9 (Institute of Parasitology of Mcgill University, 1997)
